Key:
[1] = test system: gastric histamine H2 receptors; assay: antisecretory activity: antagonism to the hypersecretion provoked by histamine in the rat (Ghosh and Schild); assay type: in vivo; settings: intravenous route, histamine infusion equivalent to 15 mcmol/kg/hour
Source text: The antagonistic activity of the products of the present invention towards the gastric histamine H2 receptors was confirmed in the test of the antisecretory activity based on the antagonism to the hypersecretion provoked by histamine in the rat according to the method of Ghosh and Schild (Brit. J. Pharmacol.1958; 13, 54). According to this test, a gastric acid hypersecretion is induced by intravenous infusion of a submaximal dose equivalent to 15 mcmol/kg/hour and the gastric secretion is measured by perfusion of a physiological solution at a constant speed in the stomach of the animal.

[2] = molecular target: T1, gastric histamine H2 receptor (Cavia porcellus, UniProt P47747); design: species or system guinea pig; settings: for IC50: concentration inhibiting by 50% the secretion induced by histamine, isolated stomach mucous membrane of the Guinea pig, CM 57755 as dihydrochloride; for IC50 m/IC50 o: ratio gastric IC50 / cardiac IC50
T1 construct: isolated stomach mucous membrane of the Guinea pig; from tissue; host or cells: isolated guinea pig stomach mucous membrane
T1 sequence (P47747 whole entry): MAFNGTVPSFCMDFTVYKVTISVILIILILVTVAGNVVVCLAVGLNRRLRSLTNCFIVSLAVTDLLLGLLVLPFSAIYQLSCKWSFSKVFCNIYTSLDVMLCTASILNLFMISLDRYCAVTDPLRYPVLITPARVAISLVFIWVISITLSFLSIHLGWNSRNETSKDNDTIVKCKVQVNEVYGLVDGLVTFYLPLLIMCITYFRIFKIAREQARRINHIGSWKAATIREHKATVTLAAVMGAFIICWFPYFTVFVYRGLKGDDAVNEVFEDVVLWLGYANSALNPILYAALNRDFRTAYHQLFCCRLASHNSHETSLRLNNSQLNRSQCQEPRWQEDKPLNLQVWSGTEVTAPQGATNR

[3] = test system: hypersecretion provoked by the dimaprit; assay: antisecretory activity in the cat having a gastric fistula, dimaprit as hypersecretor (Emas et al.); assay type: in vivo; settings: dimaprit 640 mcg/kg/hour
Experimental: The antisecretory activity of the products of the present invention was assessed in the cat having a gastric fistula according to the method of Emas et al.(Gastroenterology, 1969; 39, 771) using, as hypersecretor, dimaprit at the dose of 640 mcg/kg/hour.

[4] = molecular target: T2, cardiac histamine H2 receptor (Cavia porcellus, UniProt P47747); settings: concentration inhibiting by 50% the increase in frequency induced by histamine; isolated right atrium of the Guinea pig; CM 57755 as dihydrochloride
T2 construct: isolated right atrium of the Guinea pig; from tissue; host or cells: isolated guinea pig right atrium
T2 sequence (P47747 whole entry): as above

[5] = acute toxicity (LD50) in the rat; settings: in vivo, intravenous route
cardiac H2 receptors = settings: treatment of ulcerous disease; Clinica Terapeutica, 1981, 96, 81-91; cited from earlier work

CN(C)Cc1ccc(CSCCNC(=O)c2ccc[n+]([O-])c2)o1.Cl.Cl [CM 57755, N-[2-(5-dimethylaminomethylfuran-2-ylmethylthio)ethyl]-3-pyridinecarboxamide 1-oxide dihydrochloride]
dose inhibiting by 50% the hypersecretion provoked by histamine [1]: 0.9 mg/kg
IC50 [2]: 9200 nM
affinity for the gastric H2 receptors versus the cardiac H2 receptors ([2]; conclusion from the IC50 m/IC50 o ratio): greater affinity for the gastric H2 receptors than for the cardiac H2 receptors
selectivity of antagonising gastric hypersecretion versus the positive chronotropic action provoked by histamine ([2]; conclusion from the IC50 m/IC50 o ratio, relative to the reference compounds): capable of antagonising gastric hypersecretion more selectively than the positive chronotropic action provoked by histamine
IC50 m/IC50 o [2]: 2.13
duration of action after the suspension of the treatment [3]: long duration of action after the suspension of the treatment
activity compared with that of cimetidine ([3]; on molar basis): comparable, on molar basis, to that of the cimetidine
antagonism of the hypersecretion provoked by the dimaprit ([3]; venous perfusion and intragastric route): antagonises in dose-dependent manner
IC50 [4]: 4300 nM
LD50 [5]: 300 mg/kg

CNC(=NC#N)NCCSCc1nc[nH]c1C [cimetidine, 2-cyano-1-methyl-3-[2[(5-methylimidazol-4-yl)methylthio]ethyl]guanidine, reference compound]
duration of action after the suspension of the treatment [3]: more transient
secondary effects (block of the cardiac H2 receptors may be the cause) (cardiac H2 receptors): bradycardia and of asystolia

CNC(=C[N+](=O)[O-])NCCSCc1ccc(CN(C)C)o1 [ranitidine, reference compound]
IC50 [2]: 650 nM
IC50 m/IC50 o [2]: 7.6
IC50 [4]: 86 nM
